In US6103733A, “Method for increasing HDL cholesterol levels using heteroaromatic phenylmethanes” (priority 1998, dated 2000):
Like-named read-outs stand apart in the source and are kept apart here.

Assays:
[1] = tested on: CYP3A; conditions: human hepatocytes; cited from earlier work
[2] = tested on: HDL-cholesterol; experiment: Serum HDL-cholesterol level after feeding of the compound over 8 days; format: in vivo; conditions: feeding over 8 days, rats; in words
Excerpt: FIG. 2 represents a fold increase of HDL-cholesterol per compound;
We have invented a family of related compounds which cause a significant pharmacological elevation of serum high density lipoprotein (HDL-cholesterol) concentration from 20% to greater than 200%. […] The effect on HDL cholesterol was paralleled by an elevation in the level of apoprotein A1 (a protein component of HDL) and by elevation of apo A1 messenger RNA in treated animals.
The effect of CYP3A inducers on levels of HDL-cholesterol was determined by administration of the compound by feeding over 8 days followed by sacrifice of the animal and determination of HDL-cholesterol levels. The effects of benzylimidazole (IV), clotrimazole, the five high magnitude CYP3A inducers and four compounds showing intermediate CYP3A inducing activity were evaluated. […] The significant linear correlation between the increase in HDL-cholesterol and the increase in ethosuximide clearance is shown in FIG. 3, and supports the belief that the activities are related.

[3] = Liver/body weight ratio after administration over several days; format: in vivo; conditions: rats, indirect sign of increased cytochrome P450 content
Description: (§1) A correlation between induction of CYP3A and an increase in serum HDL-cholesterol was supported by our early experiments in which selective CYP3A inducers (Clotrimazole, dexamethasone) were administered to rats over a period of several days, and the effect on liver/body weight ratios and on HDL-cholesterol/total cholesterol ratios determined. […] A positive relationship between cytochrome P450 induction and improvement of serum lipid levels was also found.

[4] = tested on: HDL2; experiment: HDL2/total cholesterol ratio after administration over several days; format: in vivo; conditions: pretreated rats; in words
Description: as §1

[5] = tested on: CYP3A; conditions: rats; cited from earlier work
[6] = tested on: CYP3A; experiment: CYP3A induction measured as increase in rate of ethosuximide clearance after 8-day pretreatment; format: in vivo, rats; conditions: for CYP3A activity induced compared with clotrimazole (Compound (III)): measured by ethosuximide clearance, in words; for increase in ethosuximide clearance: 8-day pretreatment, rats
Description: FIG. 1 represents a fold increase in ethosuxinide clearances following an 8-day pretreatment schedule of the azoles;
Using clotrimazole (Compound (III)) as a lead compound, the effect of structure on the ability of a compound to induce CYP3A activity was determined, as measured by the test compound's ability to increase the rate of ethosuximide clearance. Over 40 structural modifications of clotrimazole were tested and significant differences in the ability to induce CYP3A activity was observed.
Analysis of the effect of substitution on the ability of a compound to induce CYP3A activity enables us to propose requirements for the induction in vivo. First, a heteroaromatic nucleus containing basic nitrogen must be present. Significant activity (i.e. >2 fold increase in ethosuximide clearance) is achieved only using substituted imidazoles, 2-methylimidazole (XIV), or in one case, pyridine (XVI). […] A variety of substituents were introduced into a single aryl ring of triphenylmethylimidazole. Most of the monosubstituted 1-triphenylmethylimidazoles produced inducing activity lower than that measured for the unsubstituted member of the series, regardless of the nature of the substituent. High magnitude CYP3A induction (i.e. >3-fold increase in ethosuximide clearance was found in only four substituted triphenylmethyl imidazoles: (XXXI)(meta-chloro). (XXXIII)(para chloro), (XXXVIII)(metafluoro).

[7] = tested on: HDL cholesterol; conditions: prospective experiments; cited from earlier work
[8] = tested on: cytochromes P450; conditions: cited from earlier work
[9] = tested on: HDL-cholesterol; conditions: rats; cited from earlier work
[10] = tested on: HDL-cholesterol; conditions: epileptic subjects vs matched patients without epilepsy; phenobarbital and/or phenytoin; cited from earlier work
[11] = tested on: apoA1; conditions: rats; cited from earlier work

Q: Which “inducer of CYP3A” value [1] does the source give for Clc1ccccc1C(c1ccccc1)(c1ccccc1)n1ccnc1 [III] here?
A: The value was “relatively selective inducer”.

Q: What about the “effect on HDL-cholesterol” value [2] of the same molecule?
A: The value was “significant effect on HDL-cholesterol”.

Q: And the liver/body weight ratio [3]?
A: The liver/body weight ratio was “markedly increased liver/body weight ratios”.

Q: And the HDL2/total cholesterol ratio [4]?
A: The HDL2/total cholesterol ratio was “noteworthy improvement in HDL2/total cholesterol ratios”.

Q: What about the “inducer of CYP3A” value [5] of the same molecule?
A: Its value is “relatively selective inducer”.

Q: With c1ccc(C(c2ccccc2)(c2ccccc2)n2ccnc2)cc1 [V, 1-triphenylmethylimidazole] as the molecule, how does the “CYP3A activity induced compared with clotrimazole (Compound (III))” value [6] read?
A: Its value is “significantly more CYP3A activity than did the lead compound”.

Q: For c1ccc(C(c2ccccc2)n2ccnc2)cc1 [XIII, 1-diphenylmethylimidazole], which CYP3A inducing activity ([6]; structure-activity statement in words, ethosuximide clearance) is on record?
A: Its CYP3A inducing activity is “progressively lost”.

Q: For Cc1nccn1C(c1ccccc1)(c1ccccc1)c1ccccc1 [XIV], which “increase in ethosuximide clearance” value [6] is on record?
A: The value was > 2 fold.

Q: For c1ccc(Cc2ccncc2)cc1 [XVI], which “increase in ethosuximide clearance” value [6] is on record?
A: The value was > 2 fold.

Q: Which results are given for Clc1ccc(C(c2ccccc2)(c2ccccc2)n2ccnc2)cc1 [XXXIII]?
A: increase in ethosuximide clearance [6]: > 3 fold; CYP3A activity induced compared with clotrimazole (Compound (III)) [6]: significantly more CYP3A activity than did the lead compound

Q: For Fc1ccc(C(c2ccccc2)(c2ccccc2)n2ccnc2)cc1 [XXXIX], which “CYP3A activity induced compared with clotrimazole (Compound (III))” value [6] is on record?
A: Its value is “significantly more CYP3A activity than did the lead compound”.

Q: Which “increase in ethosuximide clearance” value [6] does the source give for Clc1cccc(C(c2ccccc2)(c2ccccc2)n2ccnc2)c1 [XXXI] here?
A: The value was > 3 fold.

Q: And the “CYP3A activity induced compared with clotrimazole (Compound (III))” value [6]?
A: The value was “significantly more CYP3A activity than did the lead compound”.

Q: What does the source list for Fc1cccc(C(c2ccccc2)(c2ccccc2)n2ccnc2)c1 [XXXVIII]?
A: increase in ethosuximide clearance [6]: > 3 fold; CYP3A activity induced compared with clotrimazole (Compound (III)) [6]: significantly more CYP3A activity than did the lead compound

Q: With C[C@@H]1C[C@H]2[C@@H]3CCC4=CC(=O)C=C[C@]4(C)[C@@]3(F)[C@@H](O)C[C@]2(C)[C@@]1(O)C(=O)CO [dexamethasone] as the molecule, how does the liver/body weight ratio [3] read?
A: The liver/body weight ratio was “markedly increased liver/body weight ratios”.

Q: What about the HDL2/total cholesterol ratio [4] of the same molecule?
A: The HDL2/total cholesterol ratio was “noteworthy improvement in HDL2/total cholesterol ratios”.

Q: For CCC1(c2ccccc2)C(=O)NC(=O)NC1=O [phenobarbital], which “total serum HDL cholesterol/total cholesterol ratio” value [7] is on record?
A: Its value is “increases in total serum HDL cholesterol/total cholesterol ratios”.

Q: What about the “inducer of the cytochromes P450” value [8] of the same molecule?
A: The value was “known to be an inducer of the cytochromes P450”.

Q: And the HDL-cholesterol [9]?
A: Its HDL-cholesterol is “increase HDL-cholesterol”.

Q: And the “levels of HDL-cholesterol” value [10]?
A: Its value is “higher levels of HDL-cholesterol”.

Q: What about the apoA1 [11] of the same molecule?
A: The apoA1 was “increase HDL-cholesterol and apoA1 in rats”.

Q: Which “levels of HDL-cholesterol” value [10] does the source give for O=C1NC(=O)C(c2ccccc2)(c2ccccc2)N1 [phenytoin] here?
A: Its value is “higher levels of HDL-cholesterol”.
